# Reference: patent publication US20240122180A1, “FUNGICIDAL HALOMETHYL KETONES AND HYDRATES AND THEIR MIXTURES” (FMC Corporation, priority 2020, published 2024)
# Marks after values point to notes of the source that are not given here.
# Experiments:
# Type in all cases: in vivo
# [1] = test system: Puccinia recondita f. sp. tritici (the causal agent of wheat leaf rust); assay: Test B: preventive spray on wheat seedlings, disease rating (100 = 100% control; * 50 ppm, ** 10 ppm, *** 250 ppm); settings: 100 = 100% disease control
# In short: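 Preventive test: Puccinia recondita f. sp. tritici spores were inoculated one day after run-off spraying of wheat seedlings with test suspension (acetone/water 50/50, 250 ppm PEG400). After 24 h in saturated air and 6 days in a growth chamber, both at 20° C, control was scored 0–100 versus untreated plants.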
# [2] = test system: Phakopsora pachyrhizi (the causal agent of Asian soybean rust); assay: Test F: Compound 32 or 64 alone and in mixtures on soybean seedlings, observed (Obsd) and Colby expected (Exp) disease control; settings: Phakopsora pachyrhizi; for pest or weed control at 0.303 ppm: Compound 64 0.303 ppm alone; for pest or weed control at 0.489 ppm: Compound 64 0.489 ppm alone
# Description: The general protocol for preparing test compositions for Test F was as follows: Compound 32, Compound 64, azoxystrobin, benzovindiflupyr, bixafen, chlorothalonil, cyproconazole, epoxiconazole, fenpropidin, fenpropimorph, fluindapyr, flutriafol, fluxapyroxad, metominostrobin, picoxystrobin, prothioconazole, pydiflumetofen, pyraclostrobin, tebuconazole and trifloxystrobin were obtained as unformulated, technical-grade materials. Copper hydroxide and mancozeb was obtained as a formulated product marketed under the trademarks KOCIDE 3000 and MANZATE, respectively. Unformulated materials were first dissolved in acetone and then suspended at the desired concentration (in ppm) in acetone and purified water (50/50 mix by volume) containing 250 ppm of the surfactant Trem® 014 (polyhydric alcohol esters). Formulated materials were dispersed in sufficient water to give the desired concentration, and neither organic solvent nor surfactant was added to the suspension. The resulting test mixtures were then used in Test F. The tests were run on four individual plants and the results reported as the mean average of the four plants.
# The presence of a synergistic effect between two active ingredients was established with the aid of the Colby equation (see Colby, S. R. “Calculating Synergistic and Antagonistic Responses of Herbicide Combinations”, Weeds, (1967), 15, 20-22):
# Using the method of Colby, the presence of a synergistic interaction between two active ingredients is established by first calculating the predicted activity, p, of the mixture based on activities of the two components applied alone. If p is lower than the experimentally established effect, synergism has occurred. In the equation above, A is the fungicidal activity in percentage control of one component applied alone at rate x. The B term is the fungicidal activity in percentage control of the second component applied at rate y. The equation estimates p, the expected fungicidal activity of the mixture of A at rate x with B at rate y if their effects are strictly additive and no interaction has occurred.
# The test mixture was sprayed to the point of run-off on soybean seedlings. The following day the seedlings were inoculated with a spore suspension of Phakopsora pachyrhizi (the causal agent of Asian soybean rust) and incubated in a saturated atmosphere at 22° C. for 24 h and then moved to a growth chamber at 22° C. for 8 days, after which time visual disease ratings were made.
# Results for Test F are given in Tables B-1 through I-1 for Compound 32 and Tables B-2 through I-2 for Compound 64. Each table corresponds to a set of evaluations performed together at the same time. In each table, a rating of 100 indicates 100% disease control and a rating of 0 indicates no disease control (relative to the controls). Columns labeled “Obsd” indicate the average of results observed from test run on four individual plants. Columns labeled “Exp” indicate the expected value for each treatment mixture using the Colby equation.
# [3] = test system: Zymoseptoria tritici (the causal agent of wheat leaf blotch); assay: Test D: preventive spray on wheat seedlings, disease rating (100 = 100% control; * 50 ppm, ** 10 ppm, *** 250 ppm); settings: 100 = 100% disease control; for pest or weed control at 250 ppm / Test D disease control rating: 250 ppm test suspension
# Description: (§1) General protocol for preparing test suspensions for Tests A-E: the test compounds were first dissolved in acetone in an amount equal to 3% of the final volume and then suspended at the desired concentration (in ppm) in acetone and purified water (50/50 mix by volume) containing 250 ppm of the surfactant […] (polyhydric alcohol esters). The resulting test suspensions were then used in Tests A-E.
# The test solution was sprayed to the point of run-off on wheat seedlings. The following day the seedlings were inoculated with a spore suspension of Zymoseptoria tritici (the causal agent of wheat leaf blotch) and incubated in a saturated atmosphere at 24° C. for 48 h, and then moved to a growth chamber at 20° C. for 17 days, after which time disease ratings were made.
# (§2) Results for Tests A-E are given in Table A. In the Table, a rating of 100 indicates 100% disease control and a rating of 0 indicates no disease control (relative to the controls). An asterisk “*” or a double asterisk “**” or a triple asterisk “***” next to the rating value indicates a 50 ppm, 10 ppm and 250 ppm test suspension was used, respectively. A dash (-) indicates the compound was not tested.
# [4] = test system: Blumeria graminis f. sp. tritici (the causal agent of wheat powdery mildew); assay: Test E: preventive spray on wheat seedlings, visual disease rating (100 = 100% control; * 50 ppm, ** 10 ppm, *** 250 ppm); settings: 100 = 100% disease control; for pest or weed control at 250 ppm / Test E disease control rating: 250 ppm test suspension
# Description: as §1
# The test suspension was sprayed to the point of run-off on wheat seedlings. The following day the seedlings were inoculated with a spore dust of Blumeria graminis f. sp. tritici, (also known as Erysiphe graminis f. sp. tritici, the causal agent of wheat powdery mildew) and incubated in a growth chamber at 20° C. for 8 days, after which time visual disease ratings were made.
# as §2
# [5] = test system: Uncinula necator (the causal agent of grape powdery mildew); assay: Test C: preventive spray on grape seedlings, disease rating (100 = 100% control; * 50 ppm, ** 10 ppm, *** 250 ppm); settings: 100 = 100% disease control
# Description: as §1
# The test solution was sprayed to the point of run-off on grape seedlings. The following day the seedlings were inoculated with a spore suspension of Uncinula necator (the causal agent of grape powdery mildew) and incubated in a growth chamber at 20° C. for 12 days, after which time disease ratings were made.
# as §2
# [6] = test system: Phakopsora pachyrhizi (the causal agent of Asian soybean rust); assay: Test A: preventive spray on soybean seedlings, visual disease rating (100 = 100% control; * 50 ppm, ** 10 ppm, *** 250 ppm); settings: 100 = 100% disease control
# In short: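 Preventive test: one day after spraying compound (acetone/water suspension, 250 ppm PEG400), seedlings received rust spore inoculum, 24 h in saturated air then 8 days in growth chamber, both at 22 °C. Disease control scored visually, 100 = complete, 0 = none, relative to untreated controls.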
# [7] = Zymoseptoria tritici, wheat seedlings
# [8] = Blumeria graminis, wheat seedlings
# [9] = Puccinia recondita, 10 ppm test suspension, wheat seedlings
# [10] = Erysiphe necator, 250 ppm test suspension, grape seedlings
# [11] = Puccinia recondita, 10 ppm test suspension, 0 = no control
# [12] = Erysiphe necator, 50 ppm test suspension, 0 = no control
# [13] = Puccinia recondita, 50 ppm test suspension, 0 = no control
# [14] = 250 ppm test suspension, 0 = no control
# [15] = 50 ppm test suspension, 0 = no control
compound,measurement,setting,value
"CCOC(=O)c1cnn(Cc2ccc(O/C=C(\OCC)C(F)(F)F)cc2)c1 [Compound 64, ethyl 1-[[4-[[(1Z)-2-ethoxy-3,3,3-trifluoro-1-propen-1-yl]oxy]phenyl]methyl]-1H-pyrazole-4-carboxylate]",pest or weed control at 250 ppm,"[1]; Puccinia recondita, 250 ppm test suspension, wheat seedlings",99%
same,pest or weed control at 0.303 ppm,[2]; Table B-2,53%
same,pest or weed control at 0.303 ppm,[2]; Table C-2,34%
same,pest or weed control at 0.303 ppm,[2]; Table D-2,49%
same,pest or weed control at 0.303 ppm,[2]; Table E-2,78%
same,pest or weed control at 0.303 ppm,[2]; Table F-2,37%
same,pest or weed control at 0.303 ppm,[2]; Table G-2,52%
same,pest or weed control at 0.303 ppm,[2]; Table H-2,50%
same,pest or weed control at 0.303 ppm,[2]; Table I-2,50%
same,pest or weed control at 0.489 ppm,[2]; Table B-2,68%
same,pest or weed control at 0.489 ppm,[2]; Table C-2,63%
same,pest or weed control at 0.489 ppm,[2]; Table D-2,63%
same,pest or weed control at 0.489 ppm,[2]; Table E-2,77%
same,pest or weed control at 0.489 ppm,[2]; Table F-2,68%
same,pest or weed control at 0.489 ppm,[2]; Table G-2,50%
same,pest or weed control at 0.489 ppm,[2]; Table H-2,70%
same,pest or weed control at 0.489 ppm,[2]; Table I-2,81%
same,pest or weed control at 250 ppm,[3]; [7],73%
same,pest or weed control at 250 ppm,[4]; [8],99%
"CCCCOC(=O)c1cnn(Cc2ccc(O/C=C(\OCC)C(F)(F)F)cc2)c1 [Compound 218, butyl 1-[[4-[[(1Z)-2-ethoxy-3,3,3-trifluoro-1-propen-1-yl]oxy]phenyl]methyl]-1H-pyrazole-4-carboxylate]",pest or weed control at 10 ppm,[1]; [9],0%
same,pest or weed control at 250 ppm,[5]; [10],75%
same,pest or weed control at 250 ppm,[3]; [7],53%
same,pest or weed control at 250 ppm,[4]; [8],90%
"CCO/C(=C\Oc1ccc(Cn2cc(C(=O)OCCCCl)cn2)cc1)C(F)(F)F [Compound 221, 3-chloropropyl 1-[[4-[[(1Z)-2-ethoxy-3,3,3-trifluoro-1-propen-1-yl]oxy]phenyl]methyl]-1H-pyrazole-4-carboxylate]",pest or weed control at 10 ppm,[1]; [9],0%
same,pest or weed control at 250 ppm,[5]; [10],41%
same,pest or weed control at 250 ppm,[3]; [7],10%
same,pest or weed control at 250 ppm,[4]; [8],95%
"CCOC(=O)c1cnn(Cc2ccc(OCC3(C(F)(F)F)OCCO3)c(F)c2)c1 [Compound 263, ethyl 1-[[3-fluoro-4-[[2-(trifluoromethyl)-1,3-dioxolan-2-yl]methoxy]phenyl]methyl]-1H-pyrazole-4-carboxylate]",pest or weed control at 10 ppm,[1]; [11],0%
same,pest or weed control at 50 ppm,[5]; [12],100%
"CCOC(=O)c1cnn(Cc2cccc(O/C=C(\OCC)C(F)(F)F)c2)c1 [Compound 265, ethyl 1-[[3-[[(1Z)-2-ethoxy-3,3,3-trifluoro-1-propen-1-yl]oxy]phenyl]methyl]-1H-pyrazole-4-carboxylate]",pest or weed control at 50 ppm,[1]; [13],0%
same,pest or weed control at 50 ppm,[5]; [12],98%
"CCOC(=O)c1cnn(COc2ccc(O/C=C(\OCC)C(F)(F)F)cc2)c1 [Compound 364, ethyl 1-[[4-[[(1Z)-2-ethoxy-3,3,3-trifluoro-1-propen-1-yl]oxy]phenoxy]methyl]-1H-pyrazole-4-carboxylate]",pest or weed control at 50 ppm,[1]; [13],0%
same,pest or weed control at 50 ppm,[5]; [12],100%
same,pest or weed control at 50 ppm,"[3]; Zymoseptoria tritici, 50 ppm test suspension, 0 = no control",0%
same,pest or weed control at 50 ppm,"[4]; Blumeria graminis, 50 ppm test suspension, 0 = no control",56%
CCOC(=O)c1cnn(Cc2ccc(OCC(O)(O)C(F)(F)F)c(F)c2F)c1 [Compound 431],Test C disease control rating,[5]; [14],36%
same,Test D disease control rating,[3]; 0 = no control,93%
same,Test E disease control rating,[4]; 0 = no control,96%
O=C(COC(=O)c1cnn(Cc2ccc(OCC3(C(F)(F)F)OCCO3)cc2)c1)c1ccccc1 [compound 170],Test B disease control rating,"[1]; 10 ppm test suspension, wheat seedlings",0%
same,Test C disease control rating,"[5]; 50 ppm test suspension, grape seedlings",100* %
same,Test A disease control rating,"[6]; 10 ppm test suspension, soybean seedlings",100%
CCOC(=O)c1cnn(Cc2ccc(OCC3(C(F)(F)F)OCCO3)s2)c1 [compound 273],pest or weed control at 50 ppm,[1]; [13],0%
same,pest or weed control at 250 ppm,"[5]; Erysiphe necator, 250 ppm test suspension, 0 = no control",49%
same,pest or weed control at 250 ppm,"[3]; Zymoseptoria tritici, 0 = no control",20%
same,pest or weed control at 250 ppm,"[4]; Blumeria graminis, 0 = no control",65%
CCOC(=O)c1cnn(Cc2cccc(O/C=C(\OCC)C(F)(F)F)c2F)c1 [compound 301],Test B disease control rating,[1]; [15],0%
same,Test C disease control rating,[5]; [15],100* %
same,Test A disease control rating,[6]; [15],100%
COC(COc1ccc(Cn2cc(Br)cn2)cc1)(O[Si](C)(C)C)C(F)(F)F (centres unmarked) [compound 395],pest or weed control at 50 ppm,[1]; [13],100%
same,pest or weed control at 50 ppm,[5]; [12],100%
same,pest or weed control at 50 ppm,"[6]; Phakopsora pachyrhizi, 50 ppm test suspension, 0 = no control",100%
CCO/C(=C\Oc1cccc(Cn2cc(C(=O)NCc3ncccn3)cn2)c1)C(F)(F)F [compound 402],Test C disease control rating,[5]; [14],48*** %
same,Test D disease control rating,[3]; 0 = no control,5*** %
same,Test E disease control rating,[4]; 0 = no control,0*** %
same,Test A disease control rating,[6]; [15],97%
CCO/C(=C\Oc1ccc(Cn2cc(C(=O)NCC(F)F)cn2)cc1)C(F)(F)F [compound 436],Test B disease control rating,[1]; [15],0%
same,Test C disease control rating,[5]; [14],48*** %
same,Test E disease control rating,[4]; 0 = no control,0*** %
same,Test A disease control rating,[6]; [15],99%
CCOC(=O)c1cnn(COc2ccc(O/C=C(\OCC)C(F)(F)F)c(F)c2)c1 [compound 454],pest or weed control at 10 ppm,[1]; [11],0%
same,pest or weed control at 10 ppm,"[5]; Erysiphe necator, 10 ppm test suspension, 0 = no control",100%
same,pest or weed control at 10 ppm,"[6]; Phakopsora pachyrhizi, 10 ppm test suspension, 0 = no control",100%
